The record followed here is patent US20020082452A1, “alpha-sulfin-and alpha-sulfonamino acid amides” (priority 1998, published 2002).

Data set [1] deals with Plasmopara viticola. The experiment in a line: D-1: Action against Plasmopara viticola on vines (residual-protective and residual-curative action). The data set is classed as in vivo. The settings on record: vine seedlings, spray mixture 0.02% active ingredient, evaluated after 6 days at 95-100% relative humidity and 20° C. As for the experimental part: D-1: Action against Plasmopara viticola on Vines a) Residual-Protective Action
Vine seedlings are sprayed at the 4- to 5-leaf stage with a spray mixture (0.02% active ingredient) prepared from a wettable powder formulation of the test compound. After 24 hours, the treated plants are infected with a sporangia suspension of the fungus. Fungus infestation is evaluated after incubation for 6 days at 95-100% relative humidity and 20° C. […]
b) Residual-Curative Action
Vine seedlings are infected at the 4- to 5-leaf stage with a sporangia suspension of the fungus. After incubation for 24 hours in a humidity chamber at 95-100% relative humidity and 20° C., the infected plants are dried and sprayed with a spray mixture (0.02% active ingredient) prepared from a wettable powder formulation of the test compound. After the spray coating has dried, the treated plants are placed in the humidity chamber again. Fungus infestation is evaluated 6 days after infection. […] Compounds A1.02, A1.03, A1.04, A1.03, A1.5, A1.06, A1.07, A1.09, A1.10, A1.13, A1.14, A1.15, A1.16, A1.21, A1.23.

Data set [2] relates to Phytophthora. The experiment in a line: D-2: Action against Phytophthora on tomato plants (residual-protective and systemic action). In kind it is in vivo. The settings on record: spray mixture 0.02% active ingredient (sprayed or watered), evaluated after 4-5 days at 90-100% relative humidity and 20° C. As for the experimental part: D-2: Action Against Phytophthora on Tomato Plants
(§1) a) Residual-Protective Action
After a cultivation period of 3 weeks, tomato plants are sprayed with a spray mixture (0.02% active ingredient) prepared from a wettable powder formulation of the test compound. After 48 hours, the treated plants are infected with a sporangia suspension of the fungus. Fungus infestation is evaluated after incubation of the infected plants for 5 days at 90-100% relative humidity and 20° C.
After a cultivation period of 3 weeks, tomato plants are watered with a spray mixture (0.02% active ingredient based on the volume of the soil) prepared from a wettable powder formulation of the test compound. […] After 96 hours, the treated plants are infected with a sporangia suspension of the fungus. Fungus infestation is evaluated after incubation of the infected plants for 4 days at 90-100% relative humidity and 20° C. […] Compounds A1.02, A1.03, A1.04, A1.03, A1.05, A1.06, A1.07, A1.09, A1.10, A1.13, A1.14, A1.15, A1.16, A1.21, A1.23.

Data set [3] has as its system Phytophthora. The experiment in a line: D-3: Action against Phytophthora on potato plants (residual-protective and systemic action). The data set is classed as in vivo. The settings on record: potato plants (Bintje variety), spray mixture 0.02% active ingredient (sprayed or watered), evaluated after 4 days at 90-100% relative humidity and 20° C. As for the experimental part:
D-3 Action Against Phytophthora on Potato Plants
as §1
2-3 week old potato plants (Bintje variety) are sprayed with a spray mixture (0.02% active ingredient) prepared from a wettable powder formulation of the test compound. After 48 hours, the treated plants are infected with a sporangia suspension of the fungus. Fungus infestation is evaluated after incubation of the infected plants for 4 days at 90-100% relative humidity and 20° C.
2-3 week old potato plants (Bintje variety) are watered with a spray mixture (0.02% active ingredient based on the volume of the soil) prepared from a wettable powder formulation of the test compound. […] After 48 hours, the treated plants are infected with a sporangia suspension of the fungus. Fungus infestation is evaluated after incubation of the infected plants for 4 days at 90-100% relative humidity and 20° C. Fungal infestation is effectively controlled with compounds of Tables 1 to 37. Compounds A1.02, A1.03, A1.04, A1.03, A1.05, A1.06, A1.07, A1.09, A1.10, A1.13, A1.14, A1.15, A1.16, A1.21, A1.23.

In the case of `CCS(=O)(=O)N[C@H](C(=O)NCCc1ccc(OCCOc2ccc(F)cc2)c(OC)c1)C(C)C`, the melting point (usually the temperature of the solid-liquid transition) fell in the range of 124 to 125 °C.
Turning to `COc1cc(CCNC(=O)[C@@H](NS(C)(=O)=O)C(C)C)ccc1OC/C=C/c1ccc(Cl)cc1` [Compound A2.04], the Fungus infestation result in data set [1], in data set [2] and in data set [3] was “completely inhibit fungal infestation” in each case.
Regarding `CCS(=O)(=O)N[C@H](C(=O)NCCc1ccc(OC/C=C/c2ccccc2F)c(OC)c1)C(C)C` [Compound A2.09], the Fungus infestation entry in data set [1], in data set [2] and in data set [3] was “completely inhibit fungal infestation” in each case.
Regarding `COc1cc(CCNC(=O)[C@@H](NS(C)(=O)=O)C(C)C)ccc1OC/C=C/c1ccccc1F` [Compound A2.10], the Fungus infestation result in data set [1], in data set [2] and in data set [3] was “completely inhibit fungal infestation” in each case.
As for `COc1cc(CCNC(=O)[C@@H](NS(C)(=O)=O)C(C)C)ccc1OC/C=C/c1ccc(Br)cc1` [Compound A2.16], the Fungus infestation entry in data set [1], in data set [2] and in data set [3] was “completely inhibit fungal infestation” each time.
Consider `CCS(=O)(=O)N[C@H](C(=O)NCCc1ccc(OC/C=C\c2ccccc2)c(OC)c1)C(C)C` [Compound A3.02], for which the Fungus infestation result in data set [1], in data set [2] and in data set [3] was “completely inhibit fungal infestation” in each case.
`CCS(=O)(=O)N[C@H](C(=O)NCCc1ccc(OC/C=C\c2ccc(Cl)cc2)c(OC)c1)C(C)C` [Compound A3.03, Z-(S)-N-(2-{4-[3-(4-Chloro-phenyl)-allyloxy]-3-methoxy-phenyl}-ethyl)-2-ethanesulfonylamino-3-methyl-butyramide]: the melting point was 141 to 143 °C. The Fungus infestation entry in data set [1] is “completely inhibit fungal infestation”. In data set [2], the Fungus infestation entry is “completely inhibit fungal infestation”. The Fungus infestation entry in data set [3] was “completely inhibit fungal infestation”.
